The values below come from patent US20050020630A1, “Cycloalkyl and heterocycloalkyl substituted benzothiophenes as therapeutic agents” (priority 2003, published 2005).

What is called IC50 is the concentration at which inhibition is half-maximal.

T1 sequence (P48736 whole entry, species assumed): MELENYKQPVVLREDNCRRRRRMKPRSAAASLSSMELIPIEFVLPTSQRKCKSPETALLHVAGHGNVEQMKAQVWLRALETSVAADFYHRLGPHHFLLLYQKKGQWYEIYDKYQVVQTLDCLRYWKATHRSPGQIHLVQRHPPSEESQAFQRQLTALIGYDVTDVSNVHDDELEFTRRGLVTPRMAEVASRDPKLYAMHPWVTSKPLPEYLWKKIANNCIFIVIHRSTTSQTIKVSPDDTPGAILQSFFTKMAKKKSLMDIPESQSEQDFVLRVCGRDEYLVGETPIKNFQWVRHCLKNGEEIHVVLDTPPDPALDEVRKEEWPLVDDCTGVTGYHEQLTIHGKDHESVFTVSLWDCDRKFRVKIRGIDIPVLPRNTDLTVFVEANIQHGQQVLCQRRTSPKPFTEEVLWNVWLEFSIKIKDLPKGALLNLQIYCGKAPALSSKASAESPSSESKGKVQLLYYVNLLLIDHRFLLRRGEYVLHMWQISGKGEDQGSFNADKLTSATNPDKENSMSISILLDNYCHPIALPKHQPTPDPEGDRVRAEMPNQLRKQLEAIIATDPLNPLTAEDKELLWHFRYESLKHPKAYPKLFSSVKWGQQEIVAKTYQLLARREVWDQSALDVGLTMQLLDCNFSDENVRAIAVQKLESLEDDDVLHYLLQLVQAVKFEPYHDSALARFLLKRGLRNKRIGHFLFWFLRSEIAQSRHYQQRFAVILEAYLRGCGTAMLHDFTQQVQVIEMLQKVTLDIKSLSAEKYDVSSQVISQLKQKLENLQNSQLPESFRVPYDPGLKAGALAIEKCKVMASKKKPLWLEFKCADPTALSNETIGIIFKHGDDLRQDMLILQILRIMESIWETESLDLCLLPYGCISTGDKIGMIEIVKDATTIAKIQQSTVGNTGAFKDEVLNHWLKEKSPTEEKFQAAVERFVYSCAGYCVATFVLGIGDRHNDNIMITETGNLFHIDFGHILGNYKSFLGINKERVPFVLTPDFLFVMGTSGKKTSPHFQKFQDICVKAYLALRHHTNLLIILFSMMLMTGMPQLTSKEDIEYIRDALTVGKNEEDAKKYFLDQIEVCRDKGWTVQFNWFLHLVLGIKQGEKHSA
T1 sequence (Q8WYR1 whole entry partner, species assumed): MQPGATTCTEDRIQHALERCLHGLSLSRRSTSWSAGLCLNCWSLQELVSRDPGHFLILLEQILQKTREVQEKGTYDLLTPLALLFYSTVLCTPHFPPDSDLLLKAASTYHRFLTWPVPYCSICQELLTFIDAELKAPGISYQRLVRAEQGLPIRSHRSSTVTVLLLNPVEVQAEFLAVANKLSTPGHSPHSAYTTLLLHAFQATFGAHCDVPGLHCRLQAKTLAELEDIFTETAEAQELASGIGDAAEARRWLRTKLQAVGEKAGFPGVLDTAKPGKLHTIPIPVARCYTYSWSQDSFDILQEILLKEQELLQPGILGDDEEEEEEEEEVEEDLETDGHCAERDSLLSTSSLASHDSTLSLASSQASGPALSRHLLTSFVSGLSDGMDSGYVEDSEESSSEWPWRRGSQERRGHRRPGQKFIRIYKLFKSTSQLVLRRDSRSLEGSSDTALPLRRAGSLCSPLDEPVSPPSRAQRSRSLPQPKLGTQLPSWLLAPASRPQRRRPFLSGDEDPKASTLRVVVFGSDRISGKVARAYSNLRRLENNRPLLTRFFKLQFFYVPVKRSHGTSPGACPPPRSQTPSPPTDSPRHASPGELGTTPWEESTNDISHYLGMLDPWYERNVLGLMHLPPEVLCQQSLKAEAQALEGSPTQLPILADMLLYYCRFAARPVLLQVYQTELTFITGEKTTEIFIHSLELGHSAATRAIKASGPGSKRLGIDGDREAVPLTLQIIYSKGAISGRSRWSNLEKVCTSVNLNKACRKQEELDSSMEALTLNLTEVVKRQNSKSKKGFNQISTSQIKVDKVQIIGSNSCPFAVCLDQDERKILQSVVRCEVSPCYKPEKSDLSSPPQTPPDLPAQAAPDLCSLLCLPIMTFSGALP

The experiment has as its target T1, PI3Kγ (Homo sapiens, UniProt P48736).
T1 construct: HA; made in house; host or cells: Spodoptera frugiperda (Sf9) cells, baculovirus co-infection
Kind of experiment: PI3Kγ In Vitro Kinase Assay. To be noted: purified recombinant p101/p110 γ protein with G protein β1/γ2 subunits; 20 μM ATP, 25 μM PIP2; 20 minutes at room temperature; radioactive PIP3 readout. Type of experiment: biochemical. As to the method: Spodtera frugiperda cells, grown in ESF921 media, were coinfected with baculovirus expressing a glu-tagged p101 and baculovirus expressing an HA-tagged p110γ, at a 3:1 ratio of p101 baculovirus to p110γ baculovirus. Sf9 cells were grown to 1×10^7 total cells/mL in 10 L bioreactors and harvested 48-72 hours post infection. Samples of infected cells were then tested for expression of p101/p110 γ PI3 kinase by immunoprecipitation and Western Blot analysis methods (see below). To purify PI3Kγ, 4 volumes of room temperature hypotonic lysis buffer (1 mM MgCl2, 1 mM DTT, 5 mM EGTA, 1 mM Pefabloc, 0.5 μM aprotinin, 5 μM leupeptin, 2 μM pepstatin, 5 μM E64, pH 8) per gram of cell paste, was poured onto frozen cell pellets with stirring, then lysed in a nitrogen “bomb” at 400 psi (599HC […], Parr Instrument Co, Moline, Ill.). NaCl was added to 150 mM, and sodium cholate was added to 1% and mixed for another 45 minutes. The lysates were clarified by centrifugation for 25 minutes at 14,000 rpm. The lysates were then loaded over anti-glu-linked Protein-G Sepaharose beads (Covance Research Products, Richmond, Calif.) using 20 mL resin/50 g cell paste. The column was washed with 15 volumes of wash buffer (1 mM DTT, 0.2 mM EGTA, 1 mM Pefabloc, 0.5 μM aprotinin, 5 μM leupeptin, 2 μM pepstatin, 5 μM E64, 150 mM NaCl, 1% sodium cholate, pH 8). PI3Kγ was eluted with 6 column volumes of wash buffer that contain 100 μg/mL of a peptide that competes for binding of the glu tag. The column fractions with the eluted protein (determined by taking OD280 readings) were collected and dialyzed in 0.2 mM EGTA, 1 mM DTT, 1 mM Pefabloc, 5 μM leupeptin, 0.5% sodium cholate, 150 mM NaCl, and 50% glycerol, pH 8. The fractions were stored at -80° C. until further use. Spodtera frugiperda cells were coinfected with baculovirus expressing a glu-tagged G protein β1 and baculovirus expressing a G protein β2, at a 1:1 ratio of glu-tagged G protein β1 baculovirus to G protein β2 baculovirus. Sf9 cells are grown in 10 L bioreactors and harvested 48-72 hours post infection. Samples of infected cells were tested for G protein β1/β2 expression by Western Blot analysis, as described below. Cell lysates were homogenized and loaded onto a column of glu-tagged beads as in Biological Example 1 and competed off the column with a glu peptide and processed as described in Biological Example 1. The inhibitory properties of the compounds in Table 1 were assayed in an in vitro PI3K assay. In a 96-well polypropylene plate, each well was spotted with 2 μL of 50 times the desired final concentration of compound in DMSO. Purified recombinant p101/p110 γ protein (0.03 μg; 2.7 nM) and G protein β1/γ2 subunits (0.09 μg; 57.7 nM) for each reaction was combined in the assay buffer (30 mM HEPES, 100 mM NaCl, 1 mM EGTA, and 1 mM DTT). ATP and [γ-^32P-ATP] (0.09 μCi) were added to this mixture so that the final ATP concentration in the reaction was 20 μM. Lipid micelles were formed by sonicating phosphatidylinositol-4,5-diphosphate (PIP2), phosphatidylethanolamine (PE), and Na-cholate in the assay buffer for 10 minutes, adding MgCl2 and incubating on ice for 20 minutes, for final concentrations of 25 μM PIP2, 300 μM PE, 0.02% Na-cholate, and 10 mM MgCl2 in the reaction. The reactions were started by adding equal volumes lipid and enzyme mixture in a total volume of 50 μL, allowed to run for 20 minutes at room temperature, and stopped with 100 μL 75 mM H3PO4. The lipid product was transferred to a glass fiber filter plate and washed with 75 mM H3PO4 several times. The presence of radioactive lipid product (PIP3) was measured by adding Wallac Optiphase mix to each well and counting in a Wallac 1450 Trilux plate reader (PerkinElmer Life Sciences Inc., Boston, Mass. 02118). The IC50 for each compound tested is reported in μM in Table 1: […]
For the compound `COc1cc2sc(C(=O)Nc3nnn[nH]3)c(OCCCC3CCCCC3)c2cc1OC` [Example 36, 3-(3-Cyclohexyl-propoxy)-5,6-dimethoxy-benzo[b]thiophene-2-carboxylic acid (1H-tetrazol-5-yl)-amide], the IC50 was found to be 23 nM.
In the case of `COc1cc2sc(C(=O)Nc3nnn[nH]3)c(OCC3CC3)c2cc1OC` [Example 35, 3-Cyclopropylmethoxy-5,6-dimethoxy-benzo[b]thiophene-2-carboxylic acid (1H-tetrazol-5-yl)-amide] it was 350 nM.
In the case of `COc1cc2c(OC3CCCN(C(=O)OC(C)(C)C)C3)c(C(=O)Nc3nn[nH]n3)sc2cc1C` (stereo not shown) [Example 14] it was 53 nM; in that of `COc1cc2c(OC3CCCN(C(C)=O)C3)c(C(=O)Nc3nn[nH]n3)sc2cc1C` (stereo not shown) [Example 13, 3-(1-Acetyl-piperidin-3-yloxy)-5-methyoxy-6-methyl-benzo[b]thiophene-2-carboxylic acid (2H-tetrazol-5-yl)-amide], 72 nM.
For the compound `COc1cc2c(OC3CCCC(C)C3)c(C(=O)Nc3nn[nH]n3)sc2cc1C` (single isomer, unassigned) [Example 7, 5-Methoxy-6-methyl-3-(3-methyl-cyclohexyloxy)-benzo[b]thiophene-2-carboxylic acid (2H-tetrazol-5-yl)-amide], the IC50 stood at 3 nM.
To `COc1cc2sc(C(=O)Nc3nn[nH]n3)c(OC3CCC(C(C)(C)C)CC3)c2cc1OC` (stereo not shown) [Example 23, 3-(4-tert-Butyl-cyclohexyloxy)-5,6-dimethoxy-benzo[b]thiophene-2-carboxylic acid (2H-tetrazol-5-yl)-amide] belongs 56 nM; to `COc1cc2sc(C(=O)Nc3nnn[nH]3)c(OCC3CC=CCC3)c2cc1OC` (stereo not shown) [Example 32, 3-(Cyclohex-3-enylmethoxy)-5,6-dimethoxy-benzo[b]thiophene-2-carboxylic acid (1H-tetrazol-5-yl)-amide], 101 nM; to `COc1cc2sc(C(=O)Nc3nnn[nH]3)c(OC3CCCC3)c2cc1OC` [Example 50, 3-Cyclopentyloxy-5,6-dimethoxy-benzo[b]thiophene-2-carboxylic acid (1H-tetrazol-5-yl)-amide], 120 nM.
In the case of `COc1cc2sc(C(=O)Nc3nn[nH]n3)c(OCC3CC3(Cl)Cl)c2cc1OC` (stereo not shown) [Example 20, 3-(2,2-Dichloro-cyclopropylmethoxy)-5,6-dimethoxy-benzo[b]thiophene-2-carboxylic acid (2H-tetrazol-5-yl)-amide] it was 453 nM.
To `COc1cc2sc(C(=O)Nc3nnn[nH]3)c(OC3CC(C)CC(C)(C)C3)c2cc1OC` (stereo not shown) [Example 48, 5,6-Dimethoxy-3-(3,3,5-trimethyl-cyclohexyloxy)-benzo[b]thiophene-2-carboxylic acid (1H-tetrazol-5-yl)-amide] belongs 170 nM; to `COc1cc2sc(C(=O)Nc3nnn[nH]3)c(OC3CCCCC3C)c2cc1OC` (stereo not shown) [Example 26, 5,6-Dimethoxy-3-(2-methyl-cyclohexyloxy)-benzo[b]thiophene-2-carboxylic acid (1H-tetrazol-5-yl)-amide], 101 nM; to `COc1cc2c(OCCCC3CCCCC3)c(C(=O)Nc3nn[nH]n3)sc2cc1C` [Example 15, 3-(3-Cyclohexyl-propoxy)-5-Methoxy-6-methyl-benzo[b}thiophene-2-carboxylic acid (2H-tetrazol-5-yl)amide], 28 nM.
Regarding `COc1cc2sc(C(=O)Nc3nnn[nH]3)c(OC3CCN(Cc4ccccc4)CC3)c2cc1OC` [Example 49, 3-(1-Benzyl-piperidin-4-yloxy)-5,6-dimethoxy-benzo[b]thiophene-2-carboxylic acid (1H-tetrazol-5-yl)-amide], the IC50 is 2550 nM.
As to `COc1cc2sc(C(=O)Nc3nnn[nH]3)c(OC3CCC(C4CCCCC4)CC3)c2cc1OC` (stereo not shown) [Example 30, 3-(Bicyclohexyl-4-yloxy)-5,6-dimethoxy-benzo[b]thiophene-2-carboxylic acid (1H-tetrazol-5-yl)-amide], the 50% inhibitory concentration (IC50) was 110 nM.
In the case of `COc1cc2c(OC3CC(C)(C)CC(C)(C)C3)c(C(=O)Nc3nn[nH]n3)sc2cc1C` [Example 3, 5-Methoxy-6-methyl-3-(3,3,5,5-tetramethyl-cyclohexyloxy)-benzo[b]thiophene-2-carboxylic acid (2H-tetrazol-5-yl)-amide] it was 165 nM; in that of `COc1cc2sc(C(=O)Nc3nnn[nH]3)c(OC3CCC4CCCCC4C3)c2cc1OC` (stereo not shown) [Example 47, 3-(Decahydro-naphthalen-2-yloxy)-5,6-dimethoxy-benzo[b]thiophene-2-carboxylic acid (1H-tetrazol-5-yl)-amide], 112 nM; in that of `COc1cc2sc(C(=O)Nc3nn[nH]n3)c(OC3CCCCC3)c2cc1OC` [Example 22, 3-Cyclohexyloxy-5,6-dimethoxy-benzo[b]thiophene-2-carboxylic acid (2H-tetrazol-5-yl)-amide], 34 nM.
To `COc1cc2sc(C(=O)Nc3nnn[nH]3)c(OC3CCCCCCC3)c2cc1OC` [Example 33, 3-Cyclooctyloxy-5,6-dimethoxy-benzo[b]thiophene-2-carboxylic acid (1H-tetrazol-5-yl)-amide] belongs 48 nM.
Take “3-(3,5-Dimethyl-cyclohexloxy)-5,6-dimethoxy-benzo[b]thiophene-2-carboxylic acid (1H-tetrazol-5-yl)-amide [Example 34]”: the concentration for half-maximal inhibition (IC50) was 32 nM.
In the case of `COc1cc2c(OCC3(C)CC3)c(C(=O)Nc3nn[nH]n3)sc2cc1C` [Example 18, 5-Methoxy-6-methyl-3-(1-methyl-cyclopropylmethoxy)-benzo[b]thiophene-2-carboxylic acid (2H-tetrazol-5-yl)-amide] it was 20 nM; in that of `COc1cc2sc(C(=O)Nc3nnn[nH]3)c(OC3CC(C)CC(C)C3)c2cc1OC` (stereo not shown) [Example 24, 3-(3,5-dimethyl-cyclohexyloxy)-5,6-dimethoxy-benzo[b]thiophene-2-carboxylic acid (2H-tetrazol-5-yl)-amide], 103 nM; in that of `COc1cc2c(OC3CCN(Cc4ccccc4)CC3)c(C(=O)Nc3nn[nH]n3)sc2cc1C` [Example 9, 3-(1-Benzyl-piperidin-4-yloxy)-5-methoxy-6-methyl-benzo[b]thiophene-2-carboxylic acid (2H-tetrazol-5-yl)-amide], 250 nM.
To `COc1cc2sc(C(=O)Nc3nnn[nH]3)c(OC3CCC(C)C3)c2cc1OC` (stereo not shown) [Example 31, 5,6-Dimethoxy-3-(3-methyl-cyclopentyloxy)-benzo[b]thiophene-2-carboxylic acid (1H-tetrazol-5-yl)-amide] belongs 63 nM.
In the case of “5,6-Dimethoxy-3-(3-methyl-oxetan-3-ylmethylmethoxy)-benzo[b]thiophene-2-carboxylic acid (1H-tetrazol-5-yl)-amide [Example 25]” it was 445 nM.
Turning to `COc1cc2sc(C(=O)Nc3nnn[nH]3)c(OC3CC(C)CC(C)C3)c2cc1OC` (stereo not shown) [Example 46, 3-(3,5-Dimethyl-cyclohexyloxy)-5,6-dimethoxy-benzo[b]thiophene-2-carboxylic acid (1H-tetrazol-5-yl)-amide], the 50% inhibitory concentration (IC50) turned out to be 30 nM.
